From US10253030B2, “Crystal form, preparation method and intermediate of dihydropyrido ring compound” (QILU PHARMACEUTICAL CO., LTD., priority 2015, dated 2019)

How the values were obtained:
HBV = test: qPCR assay for HBV in vitro test (HBV DNA content in HepG2.2.15 cells); assay type: cell-based
Procedure: qPCR Assay for HBV In Vitro Test
The HBV DNA content in HepG2.2.15 cells was detected by real-time qPCR assay, and the EC50 values of the compounds were used as indicators to evaluate the inhibitory effect of the compounds on HBV.
2.1 Cell Line: HepG2.2.15 Cells
3.1 HepG2.2.15 cells (4×10^4 cells/well) were seeded in a 96-well plate and incubated at 37° C. under 5% CO 2 overnight.
3.2 On the second day, the compound was diluted into a total of 8 concentrations with 3-fold gradient dilution. Different concentrations of the compound were added to the culture wells, in duplicate. The final concentration of DMSO in the culture medium was 1%. 1 μM GLS4 was used as 100% inhibition control; 1% DMSO was used as 0% inhibition control.
3.3 On the fifth day, the fresh culture medium containing the compound was replaced.
3.4 On the eighth day, the culture medium in the culture wells was collected and DNA was extracted using a high-throughput DNA purification kit (Qiagen-51162). Refer to the product manual for the specific procedure.
3.1 15 μl of reaction mixture was added to each well of a 96-well PCR plate, then 10 μl of sample DNA or standard of HBV DNA to each well.
3.2 PCR reaction conditions: heating at 95° C. for 10 minutes; then denaturing at 95° C. for 15 seconds, extension at 60° C. for 1 minute, a total of 40 cycles. […]

Hepatitis B virus = settings: prior art, Science, 299 (2003), 893-896; cited from earlier work

| SMILES | EC50 (HBV; Hepatitis B virus, 192 h, HBV DNA in culture medium by real-time qPCR, day 8, read-out: Concentration for 50% of inhibition (EC50) value on HBV) | inhibitory effect on HBV DNA (HBV; qPCR, conclusion in words) | IC50 (Hepatitis B virus) |
| --- | --- | --- | --- |
| COC(=O)C1=C2C[C@H](NS(N)(=O)=O)CN2C(c2nccs2)=N[C@H]1c1ccc(F)c(F)c1F [Compound 1] | ≤ 100 nM | significant inhibitory effect on HBV DNA | – |
| Nc1ccn([C@@H]2CS[C@H](CO)O2)c(=O)n1 [Iamivudine] | – | – | 300 nM |
